Measurements published in PubChem BioAssay (NCI).
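Tested at 5 concentrations; 48 h exposure; 96-well plates; endpoints linearly interpolated, else capped at highest concentration. TGI: total growth inhibition.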

Experiments:
Assay in all cases: NCI-60 cell line screen, 48 h
OVCAR-3 ovarian = test system: OVCAR-3 ovarian
SNB-19 CNS = test system: SNB-19 CNS
SR leukemia = test system: SR leukemia
T-47D breast = test system: T-47D breast
MCF7 breast = test system: MCF7 breast
MDA-MB-231 breast = test system: MDA-MB-231 breast
KM12 colon = test system: KM12 colon
HS 578T breast = test system: HS 578T breast
SN12C renal = test system: SN12C renal
HCC-2998 colon = test system: HCC-2998 colon

| SMILES | TGI (OVCAR-3 ovarian) [µM] | TGI (SNB-19 CNS) [µM] | TGI (SR leukemia) [µM] | TGI (T-47D breast) [µM] | TGI (MCF7 breast) [µM] | TGI (MDA-MB-231 breast) [µM] | TGI (KM12 colon) [µM] | TGI (HS 578T breast) [µM] | TGI (SN12C renal) [µM] | TGI (HCC-2998 colon) [µM] |
| --- | --- | --- | --- | --- | --- | --- | --- | --- | --- | --- |
| Cc1ccc(/C=C2\N=C(N3CCCC(CO)C3)NC2=O)cc1 (stereo not given) | > 100 | > 100 | > 100 | > 100 | > 100 | > 100 | > 100 | > 100 | > 100 | > 100 |
| Cc1ccc2c(c1C)C(=O)/C(=C/c1cccc(C)c1C(=O)O)C2 | > 100 | > 100 | > 100 | > 100 | > 65.2 | > 100 | > 100 | > 100 | > 100 | > 100 |
| CCNC(=S)N/N=C(\C)c1cccc(C)n1 | > 100 | > 100 | > 100 | > 100 | > 100 | > 100 | > 100 | > 100 | > 100 | 28.9 |
| CN(C)CCCNC(=O)c1cn2c(ccc3sc4ccccc4c(=O)c32)n1 | 24.1 | 31.8 | 30 | 45.3 | 8.48 | 2.93 | 37.6 | 36.1 | 9.57 | 25.4 |
| C(#Cc1ccccc1)SC1=C(c2ccccc2)S/C(=C(\SC#Cc2ccccc2)c2ccccc2)S1 | > 100 | > 100 | > 100 | > 100 | > 100 | > 100 | > 100 | > 100 | > 100 | > 100 |
| C[C@H](CCC(=O)NCC(=O)O)[C@H]1CC[C@H]2[C@@H]3[C@H](O)C[C@@H]4C[C@H](O)CC[C@]4(C)[C@H]3CC[C@]12C | > 100 | > 100 | > 100 | > 100 | > 100 | > 100 | > 100 | > 100 | > 100 | > 100 |
| COc1ccc(CNc2nc3ccccc3nc2C(=O)O)cc1 | > 100 | > 100 | > 100 | > 100 | > 100 | > 100 | > 100 | > 100 | > 100 | > 100 |
| Cc1ccc(/C=C2/N=C(N/N=C\c3ccccc3)NC2=O)cc1 | > 100 | 90.5 | > 100 | > 100 | > 100 | > 100 | > 100 | 85.3 | > 100 | 72.1 |
| CC[C@@]1(O)C(=O)OCc2c1cc1n(c2=O)Cc2c-1nc1ccccc1c2/C=N\NC(=O)C(N)Cc1c[nH]c2ccccc12 (stereo not given in full) | > 54.9 | 1.74 | 1.19 | > 100 | > 55.7 | > 100 | > 42.7 | > 100 | > 95.3 | > 65.7 |
| N#Cc1nc(-c2cccc(-c3nc(C#N)c(N)o3)n2)oc1N | > 100 | > 100 | > 100 | > 100 | > 100 | > 100 | > 100 | > 100 | > 100 | > 100 |
| O=c1[nH]c2ccc([N+](=O)[O-])cc2nc1/C=C(\O)c1ccccc1 | 99.2 | 31.8 | > 100 | > 100 | > 100 | 15.3 | > 100 | 8.93 | 59.5 | > 100 |
| COc1ccccc1NC(=S)N/N=C/c1cccc(C)n1 | > 100 | > 100 | 10.4 | > 100 | > 100 | > 100 | > 100 | > 100 | > 93.8 | > 100 |
| O=c1[nH]nc(-c2ccccc2)n1-n1cnnc1 | > 100 | > 100 | > 100 | > 100 | > 100 | > 100 | > 100 | > 100 | > 100 | > 100 |
| CC/C(N)=N\NC(=O)OC(C)(C)C | > 100 | > 100 | > 100 | > 100 | > 100 | > 100 | > 100 | > 100 | > 100 | > 100 |
| O=[N+]([O-])C(C=C(n1nnc2ccccc21)n1nnc2ccccc21)=C(n1nnc2ccccc21)n1nnc2ccccc21 | > 100 | > 100 | 66.6 | > 100 | > 100 | > 100 | > 100 | > 100 | > 100 | > 100 |
| COc1cc(/C=N/NC2=NCCN2)ccc1O | > 100 | > 100 | > 100 | > 100 | > 100 | > 100 | > 100 | > 100 | > 100 | > 100 |
| COc1cc2c3c(cc(Cl)nc3c1OC)C(O)(CC(=O)c1ccccc1)C(=O)N2 (stereo not given) | 30.2 | 31.8 | > 29 | > 100 | 4.02 | 31.2 | 31.3 | 73.4 | 19.3 | 35.7 |
| O=C1N(c2ccccc2)C(=S)/C(=C/c2ccc(Cl)cc2)N1c1ccc(Cl)cc1 | > 100 | > 100 | 15.5 | > 100 | > 100 | 90.5 | > 100 | > 100 | > 100 | > 100 |
| C=C1C(=O)OC2C3OC(C)(CCC(O)C3COC(C)=O)CC(OC(=O)/C(=C/C)COC(C)=O)C12 (stereo not given) | 0.983 | 18.3 | 0.713 | 0.424 | 0.533 | 1.16 | 3.45 | 31.3 | 1.98 | 2.59 |
| Cc1ccc(NC(=O)CC(=O)n2nc(C)c(N=Nc3cccc(C)c3)c2C)cc1 | > 100 | > 100 | > 100 | > 100 | > 100 | > 100 | > 100 | > 100 | > 100 | > 100 |
| O=P(O)(O)CN1CCNCCN(CP(=O)(O)O)CC1 | > 100 | > 100 | > 90.6 | > 100 | > 100 | > 100 | > 100 | > 100 | > 100 | > 100 |
| O=C(Nc1ccc(Cl)cc1)c1cc(S(=O)(=O)Nc2n[nH]c(=O)n2-c2ccccc2)c(S)cc1Cl | > 100 | > 100 | > 100 | > 100 | > 100 | > 100 | > 100 | > 100 | > 100 | > 100 |
| O=[N+]([O-])/C(C(Cl)=C(Cl)Cl)=C(/Nc1ccccc1)Sc1ccccc1 | 30.1 | 34.3 | 43 | 59.8 | 75.2 | 37.6 | 36 | > 100 | 97.5 | 32.8 |
| O=C1C(c2c(O)[nH]c3ccc(S(=O)(=O)NCCO)cc23)=Nc2ccccc21 | 18.3 | > 100 | 21.6 | 50.4 | 6.53 | 31.6 | 2.2 | > 100 | > 100 | > 100 |
| N#Cc1nc(/C=C/c2cccnc2)oc1N | > 100 | > 100 | > 100 | > 100 | > 100 | > 100 | > 100 | > 100 | > 100 | > 100 |
| CCCCC[C@H]1CCCCCCCCCC(=O)OC2C(O[C@@H]3OC(C)[C@H](OC(=O)[C@@H](C)CC)C(O[C@@H]4OC(C)[C@H](O)C(O)[C@@H]4O)[C@@H]3OC(=O)[C@H](C)CC)[C@H](OC3C(O)[C@@H](O)C(C)O[C@H]3O1)OC(CO)[C@H]2O (stereo not given in full) | 32 | 32.1 | 34.7 | 33.3 | 34.7 | 30.7 | 35.8 | 35.8 | 31.3 | 31.8 |
| CC(C)(C)[Si](C)(C)OC[C@H](/C=C\CCCC(=O)O)NC1(c2ccccc2)c2ccccc2-c2ccccc21 | 36.1 | > 100 | 32.3 | > 100 | 34.5 | 39.3 | 48.8 | 50.5 | 31.6 | 37.2 |
| COC(=O)c1cc(/C=C\c2cc(OC)ccc2OC)ccc1OC | 65.8 | > 100 | > 100 | 52.1 | 84.4 | > 100 | > 100 | > 100 | > 100 | 45.7 |
| CN1CCN([C@H]2C[C@H]3[C@@H]4CC=C5C[C@@H](O)CC[C@]5(C)[C@H]4CC[C@]3(C)[C@H]2O)CC1 | > 57.8 | > 62 | 53.3 | > 77.8 | > 63.2 | > 64.7 | > 86.3 | > 100 | > 100 | > 100 |
| CCOC(=O)CCC(NC(=O)c1ccc(Nc2nc3ccccc3nc2C(=O)OCC)cc1)C(=O)OCC (stereo not given) | 4.73 | 14 | > 100 | 7.06 | > 79 | > 23.8 | > 100 | 21.7 | > 40.7 | > 100 |
